Test results as given in PubChem BioAssay (NCI).
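96-well plates; 48 h exposure; 5 concentrations. Endpoints by linear interpolation between flanking doses. Not reached: highest tested concentration assigned. GI50 marks 50% less growth. TGI: total growth inhibition.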

Columns and labels:
Assay in all cases: NCI anticancer screen, dose series, 48 h
[1] = system: ACHN renal
[2] = system: NCI-H23 lung
[3] = system: OVCAR-4 ovarian
[4] = system: KM12 colon
[5] = system: CAKI-1 renal
[6] = system: HS 578T breast
[7] = system: SN12C renal
[8] = system: T-47D breast
[9] = system: SK-OV-3 ovarian
[10] = system: NCI/ADR-RES ovarian
[11] = system: LOX IMVI melanoma
[12] = system: MDA-MB-435
[13] = system: SR leukemia
[14] = system: HCT-15 colon
[15] = system: SF-268 CNS
[16] = system: OVCAR-3 ovarian
[17] = system: EKVX NSCLC
[18] = system: BT-549 breast
[19] = system: TK-10 renal
[20] = system: A549 NSCLC
[21] = system: PC-3 prostate
[22] = system: SK-MEL-28 melanoma
[23] = system: UACC-62 melanoma
[24] = system: OVCAR-5 ovarian
[25] = system: HCC-2998 colon
[26] = system: SF-295 CNS
[27] = system: CCRF-CEM leukemia
[28] = system: SF-539 CNS
[29] = system: 786-0 renal
[30] = system: HOP-62 NSCLC
[31] = system: HL-60(TB) leukemia
[32] = system: NCI-H226 lung
[33] = system: IGROV1 ovarian
[34] = system: SK-MEL-2 melanoma
[35] = system: HT29 colon
[36] = system: UO-31 renal
[37] = system: HCT-116 colon
[38] = system: NCI-H522 lung
[39] = system: MOLT-4 leukemia
[40] = system: UACC-257 melanoma
[41] = system: COLO 205 colon
[42] = system: OVCAR-8 ovarian
[43] = system: SNB-19 CNS
[44] = system: MALME-3M melanoma
[45] = system: DU-145 prostate
[46] = system: M14 melanoma
[47] = system: MDA-MB-231 breast
[48] = system: SNB-75 CNS
[49] = system: HOP-92 NSCLC
[50] = system: SW-620 colon
[51] = system: U251 CNS
[52] = system: K-562 leukemia
[53] = system: MCF7 breast
[54] = system: RXF 393 renal
[55] = system: SK-MEL-5 melanoma
[56] = system: NCI-H460 lung

In the case of `COc1cc2c(cc1OCCCCCn1c(-c3ccc(OCc4ccccc4)cc3)nc3cc(N4CCOCC4)ccc31)N=C[C@@H]1CCCN1C2=O`, the GI50 [1] is reported as 2.63 µM, the TGI [1] is reported as 8.31 µM and the GI50 [2] is reported as 2.62 µM. For the same compound, the TGI [2] was 6.53 µM, the GI50 [3] was 3.4 µM and the TGI [3] was 59.4 µM. The GI50 [4] was 1.93 µM, the TGI [4] was 4.73 µM and the GI50 [5] was 1.43 µM. For the same compound, the TGI [5] was 9 µM, the GI50 [6] was 2.84 µM and the TGI [6] was 12.8 µM. For the same compound, the GI50 [7] was 3.11 µM, the TGI [7] was 47 µM and the GI50 [8] was 2.17 µM. The TGI [8] was 7.73 µM, the GI50 [9] was 4.16 µM and the TGI [9] was over 100 µM. For the same compound, the GI50 [10] was 3.3 µM, the TGI [10] was 26.1 µM and the GI50 [11] was 2.02 µM. The TGI [11] was 7.85 µM, the GI50 [12] was 1.87 µM and the TGI [12] was 4.38 µM. The GI50 [13] was 1.05 µM, the GI50 [14] was 2.81 µM and the TGI [14] was over 31.3 µM. It also gave a GI50 [15] of 2.91 µM, a TGI [15] of 10.4 µM and a GI50 [16] of 2.06 µM. For the same compound, the TGI [16] was 5.36 µM, the GI50 [17] was 4.74 µM and the TGI [17] was 20.7 µM. It also gave a GI50 [18] of 1.52 µM, a TGI [18] of 5.68 µM and a GI50 [19] of 3.45 µM. For the same compound, the TGI [19] was over 36.2 µM, the GI50 [20] was 2.43 µM and the TGI [20] was 7.95 µM. The GI50 [21] was 3.88 µM, the TGI [21] was over 100 µM and the GI50 [22] was 2.18 µM. For the same compound, the TGI [22] was 4.61 µM, the GI50 [23] was 1.72 µM and the TGI [23] was 3.67 µM. It also gave a GI50 [24] of 3.49 µM, a TGI [24] of over 28.9 µM and a GI50 [25] of 2.09 µM. The TGI [25] was 4.14 µM, the GI50 [26] was 4.84 µM and the TGI [26] was over 100 µM. It also gave a GI50 [27] of 1.4 µM, a GI50 [28] of 2.42 µM and a TGI [28] of 5.41 µM. The GI50 [29] was 3.24 µM, the TGI [29] was over 69.3 µM and the GI50 [30] was 3.58 µM. The TGI [30] was 40 µM, the GI50 [31] was 2.31 µM and the TGI [31] was over 19.9 µM. The GI50 [32] was 1.88 µM, the TGI [32] was 4.56 µM and the GI50 [33] was 1.17 µM. It also gave a TGI [33] of 5.88 µM, a GI50 [34] of 0.729 µM and a TGI [34] of 3.02 µM. The GI50 [35] was 3.26 µM, the TGI [35] was over 100 µM and the GI50 [36] was 0.377 µM. The GI50 [37] was 2.39 µM, the TGI [37] was over 100 µM and the GI50 [38] was 2.15 µM. For the same compound, the TGI [38] was 8.35 µM, the GI50 [39] was 2.93 µM and the TGI [39] was over 26.6 µM. It also gave a GI50 [40] of 3.04 µM, a TGI [40] of 7.78 µM and a GI50 [41] of 2.15 µM. For the same compound, the TGI [41] was 5.13 µM, the GI50 [42] was 2.78 µM and the TGI [42] was over 50.9 µM. For the same compound, the GI50 [43] was 3.71 µM, the TGI [43] was over 49.8 µM and the GI50 [44] was 2.08 µM. For the same compound, the TGI [44] was 4.49 µM, the GI50 [45] was 2.57 µM and the TGI [45] was 11.3 µM. The GI50 [46] was 2 µM, the TGI [46] was 4.56 µM and the GI50 [47] was 2.8 µM. It also gave a TGI [47] of over 47.2 µM, a GI50 [48] of 1.99 µM and a TGI [48] of 6.63 µM. It also gave a GI50 [49] of 2.11 µM, a TGI [49] of 26.2 µM and a GI50 [50] of 2.12 µM. The TGI [50] was 8.29 µM, the GI50 [51] was 2.23 µM and the TGI [51] was over 100 µM. The TGI [52] was over 100 µM, the GI50 [53] was 1.18 µM and the TGI [53] was 8.77 µM. It also gave a TGI [54] of 2.38 µM, a GI50 [55] of 1.66 µM and a TGI [55] of 3.13 µM. It also gave a GI50 [56] of 2.17 µM and a TGI [56] of 5.93 µM.
